From US20250367134A1, “PERIPHERALIZATION OF CENTRALLY-ACTING CANNABINOID-1 RECEPTOR ANTAGONISTS BY NANOPARTICLES FOR THE TREATMENT METABOLIC RELATED CONDITIONS” (Yissum Research Development Company of the Hebrew …, priority 2022, published 2025)
Where a name gives a salt, the structure may show the parent alone.

Legend:
[1] = Multi-parameter metabolic assessment (indirect calorimetry) in DIO mice; type: in vivo; conditions: 1 mg/kg/d ip, 28 days
Method: The metabolic and activity profiles of the mice were assessed using the Promethion High-Definition Behavioral Phenotyping System (Sable Instruments, Inc., Las Vegas, NV, USA). Data acquisition and instrument control were performed using MetaScreen software version 2.2.18.0, and the obtained raw data were processed using ExpeData version 1.8.4, using an analysis script detailing all aspects of the data transformation. Mice with free access to food and water were subjected to a standard 12 h light/12 h dark cycle, which consisted of a 16 h acclimation period, followed by 24 h of sampling. Respiratory gases were measured by using the GA-3 gas analyzer (Sable Systems, Inc., Las Vegas, NV, USA), using a pull-mode, negative-pressure system. Airflow was measured and controlled by FR-8 (Sable Systems, Inc., Las Vegas, NV, USA), with a set flow rate of 2000 mL/min. Water vapor was continuously measured and its dilution effect on O2 and CO2 was mathematically compensated. The effective mass (eff.Mass) was calculated by ANCOVA analysis. The respiratory quotient (RQ) was calculated as the ratio between CO2 produced to O2 consumed, and the total energy expenditure (TEE) was calculated as VO2×(3.815+1.232×RQ), normalized to the effective body mass, and expressed as kcal/h/kg^eff.Mass. Fat oxidation (FO) was calculated as FO=1.69×VO2−1.69×VCO2 and expressed as g/d/kgeff.Mass. Ambulatory activity and position were monitored simultaneously with the collection of the calorimetry data using XYZ beam arrays with a beam spacing of 0.25 cm.

serum protein = conditions: cited from earlier work
[2] = 3 and 10 mg/kg; cited from earlier work
[3] = Chronic treatment of diet-induced obesity (DIO) mice: body weight, body composition, food intake, urine; type: in vivo; conditions: 1 mg/kg/d ip, 28 days
Excerpt: The experimental protocol used was approved by the Institutional Animal Care and Use Committee of the Hebrew University, which is an AAALAC International accredited institute. To generate diet-induced obesity (DIO; body weight>42 g), six-week-old male C57B1/6JHsd mice (Envigo, Israel) were fed either a high-fat diet (HFD; 60% of calories from fat, 20% from protein, and 20% from carbohydrates; Research Diet, D12492), or a standard diet (STD; 14% fat, 24% protein, 62% carbohydrates; NIH-31 rodent diet) for 16 weeks. […] Body-weight and food intake were measured daily. Total body fat and lean masses were determined by EchoMRI100H™ (Echo Medical Systems LLC, Houston, TX, USA). At 24 h, urine was collected one week before euthanasia using mouse metabolic cages (CCS2000 Chiller System, Hatteras Instruments, NC, USA). Mice were euthanized by cervical dislocation under anesthesia, and the kidneys, brain, liver, fat pads, spleen, lungs, and heart were removed and weighed, and samples were either snap-frozen or fixed in buffered 4% formalin. Trunk blood was collected to determine the biochemical parameters.

[4] = Biodistribution of rimonabant in HFD-fed obese mice after chronic 28-day treatment; type: in vivo; conditions: 18 hr following the last injection, 1 mg/kg ip, 28 days
Method: The NPs were suspended in 1×PBS (15-450 μg/mL), and the free drug was dissolved in 4% DMSO, 1% Tween 80, and saline (0.1-3.0 mg/mL). The mice were euthanized 1-, 4-, and 24-h post-injection. […] The mice were euthanized 18 h following the last injection. Blood was collected, and mice were perfused with 1×PBS (via the left ventricle until the effluent from the right atrium was clear of blood), and the brain, lungs, liver, kidneys, fat, and spleen were harvested.
Tissues and serum samples were processed as follows: Total proteins were precipitated with ice-cold acetone/Tris buffer (50 mM, pH 8.0). Then, the samples were homogenized in ice-cold methanol/Tris buffer (50 mM, pH 8.0, 1:1) containing AM251 10 μg/mL as an internal standard. […] Rimonabant levels in the samples were determined by liquid chromatography/tandem mass spectrometry (LC-MS/MS).
The analyses were conducted on a TSQ Quantum Access Max triple quadrupole mass spectrometer (Thermo Scientific, San Jose, CA, USA) coupled with an UHPLC system, which included a Dionex Pump and an Accela Autosampler (Thermo Scientific, San Jose, CA, USA). […] Rimonabant was detected in a positive ion mode using electron spray ionization (ESI) and the multiple reaction monitoring (MRM) mode of acquisition. […]

[5] = 10 mg/kg; cited from earlier work
[6] = system: genes associated with fatty-acid β-oxidation (Cpta1, Acadm, Echs1, Hadh, and Acaa2); assay: CB1R antagonism in primary hepatocytes under lipotoxic conditions, qPCR; type: cell-based, mouse; conditions: 1 μM, 24 h, 0.5 mM O:P 2:1
Method: Total RNA of mouse livers or primary hepatocytes was extracted using TRIzol (Invitrogen), followed by DNase I treatment (Invitrogen), and then reverse-transcribed using an Iscript cDNA kit (Bio-Rad). Real-time PCR was conducted using iTaq Universal SYBR Green Supermix (Bio-Rad) and the CFX connect ST system (Bio-Rad). The following Mus musculus genes were detected: Cpta1, Acadm, Echs1, Hadh, and Acaa2; all genes were normalized to β-actin.
Primary mouse hepatocytes were isolated by liberase perfusion as previously described. Briefly, the liver of anesthetized mice was first perfused with calcium-free Hanks balanced salt solution supplemented with HEPES and EDTA (HBSS, Biological Industries, Beit HaEmek, Cat #02-018-1A HEPES Cat #03-025-1B), followed by perfused liberase digestion (25 μg/mL liberase in HBSS; Biological Industries, Beit HaEmek, Cat #02-015-1A with 25 mM HEPES). After digestion, the hepatocytes were released by dissociation from the lobes (centrifuged at 50×g for 2 min at 4° C.). The pellet from the first centrifugation of hepatocytes was loaded on a 90% Percoll gradient (Sigma-Aldrich; Cat #GE17-0891-01) and centrifuged at 200×g for 10 min at 4° C. […]

[7] = Blood and liver biochemistry and histopathology in DIO mice; type: in vivo; conditions: 1 mg/kg/d ip, 28 days
Method: Serum levels of cholesterol, triglycerides, high-density lipoprotein (HDL), low-density lipoprotein (LDL), and alanine aminotransferase (ALT) were determined by using the Cobas C-111 chemistry analyzer (Roche, Switzerland). Serum insulin and leptin levels were measured by ELISAs (Merck, Cat #EZRMI-13K and #E6082-K, respectively). Fasting blood glucose was measured using a glucometer. Liver tissues were extracted as known, and their triglyceride content was determined using the Cobas C-111 chemistry analyzer (Roche, Switzerland).
Five μm paraffin-embedded liver sections from 7 animals per group were stained with H&E staining. Liver images were captured with a Zeiss AxioCam ICc5 color camera mounted on a Zeiss Axio Scope.A1 light microscope and taken from 10 random 40× fields of each animal. Lipid staining was conducted using an Oil Red O staining kit (Cat #ab150678; Abcam) according to the manufacturer's protocol. Briefly, at a […] optimal cutting temperature (O.C.T) (Cat #4583; SciGen, Inc., Gardena, CA, USA), compound-embedded liver sections were placed in propylene glycerol, followed by an Oil Red O solution and hematoxylin staining. Stained sections were photographed as mentioned above and positive red areas were quantified in a blinded manner using Image J software with a minimum of 10 random liver sections per mouse.

[8] = Glucose tolerance (ipGTT) and insulin sensitivity tests (ipIST) in DIO mice; type: in vivo; conditions: 1 mg/kg/d ip, 28 days
Method: Mice that underwent overnight fasting were injected with glucose (1.5 g/kg, ip), followed by a tail blood collection at 0, 15, 30, 45, 60, 90, and 120 minutes. The blood glucose levels were determined using a glucometer. The following day, the mice underwent fasting for 6 h before receiving insulin (0.75 U/kg, ip; Eli Lilly); their blood glucose levels were determined at the same intervals as above. The homeostasis model assessment insulin resistance (HOMA-IR) was calculated as ([μU/mL] X fasting plasma glucose [mmol/L]/22.5). The insulin sensitivity index (ISI) was calculated as 1/(glucose×insulin)×1000, with glucose expressed as mg/dL and insulin as mU/L.

SMILES: Cc1c(C(=O)NN2CCCCC2)nn(-c2ccc(Cl)cc2Cl)c1-c1ccc(Cl)cc1 [free rimonabant, N-(piperidin-1-yl)-5-(4-chlorophenyl)-1-(2,4-dichlorophenyl)-4-methyl-1H-pyrazole-3-carboxamide hydrochloride]
- animal's activity profile [1]: without affecting
- fat oxidation (FO) [1]: upregulation
- oxygen consumption (VO2) [1]: upregulation
- total energy expenditure (TEE) [1]: upregulation
- serum protein binding (serum protein): > 98%
- despair-like behavior in the Tail Suspension Test [2]: did not induce despair-like behavior
- body weight (overweightness) [3]: significantly reduced
- fat mass (adiposity) [3]: significantly reduced
- food intake [3]: without affecting
- lean mass [3]: increased
- levels of rimonabant in the brain [4]: Comparable low levels
- depressive-like symptoms in the Forced Swim Test [5]: did not induce depressive-like symptoms
- expression levels of genes associated with fatty oxidation [6]: significantly upregulated
- HFD-induced fatty liver (liver weight, hepatic triglyceride content, hepatocyte ballooning, fat accumulation, serum ALT levels) [7]: completely reversed
- serum leptin levels [7]: significantly reduced
- HOMA-IR [8]: reduced
- hyperinsulinemia [8]: reduced
- insulin sensitivity [8]: improved
- obesity-induced glucose intolerance [8]: reversed
